These are literature values, as cited in patent US20130165526A1, “TOPICAL TREATMENT WITH DAPSONE IN G6PD-DEFICIENT PATIENTS” (ALLERGAN, INC., priority 2007, published 2013).

This data set deals with P. acnes. The conditions noted are these: Godowski et al., 2000.

As to `Nc1ccc(S(=O)(=O)c2ccc(N)cc2)cc1` [Dapsone, bis(4-aminophenyl)sulfone], the Minimum inhibitory concentration entry is “about 1 microgram per milliliter”.
